Test results: patent US12528790B2, “Amide derivative having antiviral activity” (Shionogi & Co., Ltd., priority 2020, dated 2026)
pEC50: −log10 of the molar value. Where two headings read alike, the source gives them in different places.

Tested on: RSV A2 strain
Assay: In vitro CPE (CytoPathic Effect) inhibition effect evaluation test, RSV type A
Assay type: cell-based
Description: The test sample is diluted in advance to an appropriate concentration with DMSO, and 3-fold series of serial dilutions were prepared on a 384-well plate (0.32 μL/well). HEp-2 cells (CCL-23; ATCC) adjusted at appropriate number (2.4×10^5 cells/mL) in 2% FBS E-MEM (prepared by adding kanamycin and FBS to Eagle's Minimum Essential Medium; Invitrogen) were added at 12.5 μL/well to the 384-well plate previously aliquoted with the test samples. The RSV A2 strain was diluted to an appropriate concentration in a culture medium and added to the 384-well plate containing the test sample at 12.5 μL/well. The culture medium was added additionally to the 384-well plate, and the test was started with 50 μL/well. Control wells were prepared with only virus-free culture medium. The plate was incubated in a 5% CO2 incubator at 37° C. for 4 days, and the plate was then placed at room temperature for 30 minutes. CellTiter-Glo (registered trademark) 2.0 assay (Promega) was added at 15 μL/well, mixed for 30 seconds, and the plate was placed for approximately 1 hour. The luminescent signal was then measured by EnVision (PerkinElmer). The inhibitory effect of the test agents on RSV-induced CPE was calculated as 0% and 100% inhibition rate for each sample concentration based on the level of remaining viable cells by CellTiter-Glo (registered trademark) 2.0, with the EC50 value for each compound calculated by nonlinear regression as the concentration that inhibits RSV-induced CPE by 50%. In the case of evaluation against RSV type B, RSV B (Wash/18537 strain) was infected in the same manner as the type A, cultured for 5 days, and quantitated in the same manner as for the A2 strain.

[1] = human respiratory syncytial virus, inhibitory effect against RSV type A (RSV A2 strain), HEp-2 cells, CPE inhibition, read-out: EC50
[2] = inhibitory effect against RSV type A (RSV A2 strain), HEp-2 cells, CPE inhibition, read-out: EC50
[3] = human respiratory syncytial virus, HEp-2

| Compound | pEC50 [1] | other results |
| --- | --- | --- |
| COC12CC3CC(C1)C(NC(=O)c1cnc(N4CC5(CCOCC5)c5cc(OC6CCN(c7ncccn7)CC6)ccc54)nc1C(F)(F)F)(C(=O)O)C(C3)C2 (single isomer, unassigned) [Compound I-211] |  | pEC50 [2]: > 8.00 |
| O=C(NC1(C(=O)O)CCCCC1)c1cnc(N2CCc3cc(OC4CCN(c5ccncc5)CC4)ccc32)nc1C(F)(F)F [Compound I-84] | 7.00 to 8.00 |  |
| O=C(NC1(C(=O)O)C2CC3CC(C2)CC1C3)c1cnc(N2CC3(CCOCC3)c3cc(O[C@@H]4C[C@H]5CC[C@@H](C4)N5)ccc32)nc1C(F)(F)F (stereo partly shown) [Compound I-212] |  | pEC50 [3]: 5.30 to 7.00 |
| O=C(NC1(C(=O)O)C2CC3CC(C2)CC1C3)c1ccc(-c2cn(-c3ccc(C(F)(F)F)cn3)c3cc(OC4CCN(c5ncccn5)CC4)ccc23)nc1C(F)(F)F (stereo not shown) [Compound I-303] |  | pEC50 [2]: > 8.00 |
| COc1cccc(COc2ccc3c(c2)CCN3c2ncc(C(=O)NC3(C(=O)O)CC4CCC3C4)c(C(F)(F)F)n2)c1 (single isomer, unassigned) [Compound I-17] |  | pEC50 [2]: > 8.00 |
| O=C(NC(C(=O)O)C1CCCCC1)c1cnc(N2CCc3cc(OC4CCN(c5ncccn5)CC4)ccc32)nc1C(F)(F)F (racemic) [Compound I-50] | 7.00 to 8.00 |  |
| Cc1ccc2c(c1)C1(CCN(C3COC3)CC1)CN2c1ncc(C(=O)NC2(C(N)=O)C3CC4CC(C3)CC2C4)c(C(F)(F)F)n1 (stereo not shown) [Compound I-181] |  | pEC50 [3]: 7.00 to 8.00 |
| O=C(NC1(C(=O)O)C2CC3CC(C2)CC1C3)c1cnc(N2CC3(CCOCC3)c3cc(C=C4CCN(C(=O)OCc5ccccc5)CC4)ccc32)nc1C(F)(F)F (stereo not shown) [Compound I-111] |  | pEC50 [2]: > 8.00 |
| O=C(NC1(C(=O)O)CCCCC1)c1cnc(N2CCc3cc(OC4CCN(c5nccc(=O)[nH]5)CC4)ccc32)nc1C(F)(F)F [Compound I-69] | 5.30 to 7.00 |  |
| CC(F)(F)c1nc(N2CC3(CCOCC3)c3cc(OC4CCN(c5ncccn5)CC4)ccc32)ncc1C(=O)NC1(C(=O)O)C2CC3CC(C2)CC1C3 (stereo not shown) [Compound I-294] |  | pEC50 [2]: > 8.00 |
| O=C(NC1(C(=O)O)C2CC3CC(C2)CC1C3)c1cnc(N2CC3(CCOCC3)c3cc(-n4ncc5cccnc54)ccc32)nc1C(F)(F)F (stereo not shown) [Compound I-471] | > 8.00 |  |
| O=C(NC1(C(=O)O)C2CC3CC(C2)CC1C3)c1ccc(-c2cn([C@H]3CC[C@H](O)CC3)c3cc(OC4CCN(c5ncccn5)CC4)ccc23)nc1C(F)(F)F (stereo partly shown) [Compound I-195] | > 8.00 |  |
| Cc1nc(COc2ccc3c(c2)CCN3c2ncc(C(=O)NC3(C(=O)O)CCCCC3)c(C(F)(F)F)n2)cs1 [Compound I-28] | 7.00 to 8.00 |  |
| O=C(NC1(C(=O)O)C2CC3CC(C2)CC1C3)c1cnc(-c2cn(C3CCC(F)(F)CC3)c3cc(OC4CCN(CC5(F)CC5)CC4)ccc23)nc1C(F)(F)F (stereo not shown) [Compound I-425] | > 8.00 |  |
| COc1ccc2c(-c3ncc(C(=O)NC4(C(=O)O)C5CC6CC(C5)CC4C6)c(C(F)(F)F)n3)cn(C3CCC(F)(F)CC3)c2c1 (stereo not shown) [Compound I-455] | 7.00 to 8.00 |  |
| O=C(NC1(C(=O)O)CCCCC1)c1cnc(N2CCc3cc(C4=CCCN(c5ncccn5)C4)ccc32)nc1C(F)(F)F [Compound I-71] | > 8.00 |  |
| CCNC(=O)N1CCC2(CC1)CN(c1ncc(C(=O)NC3(C(=O)O)C4CC5CC(C4)CC3C5)c(C(F)(F)F)n1)c1ccc(C)cc12 (stereo not shown) [Compound I-138] | > 8.00 |  |
| COCCn1cc(-c2ncc(C(=O)NC3(C(=O)O)C4CC5CC(C4)CC3C5)c(C(F)(F)F)n2)c2ccc(OCCC3CCOCC3)cc21 (stereo not shown) [Compound I-130] | > 8.00 |  |
| O=C(NC1(C(=O)O)C2CC3CC(C2)CC1C3)c1ccc(-c2cn(-c3ccncc3F)c3cc(OC4CCN(c5ncccn5)CC4)ccc23)nc1C(F)(F)F (stereo not shown) [Compound I-312] |  | pEC50 [2]: > 8.00 |
| O=C(NC1(C(=O)O)C2CC3CC(C2)CC1C3)c1cnc(-c2cn(C3CCC(F)(F)CC3)c3cc(OC4CCC(C(F)(F)F)CC4)ccc23)nc1C(F)(F)F (stereo not shown) [Compound I-428] | > 8.00 |  |
| O=C(NC1(C(=O)O)C2CC3CC(C2)CC1C3)c1cnc(-c2cn(C3CCC(F)(F)CC3)c3cc(OC4CN(CC(F)(F)F)C4)ccc23)nc1C(F)(F)F (stereo not shown) [Compound I-388] | > 8.00 |  |
| O=C(NC1(C(=O)O)C2CC3CC(C2)CC1C3)c1ccc(-c2cn(C3CCCOC3)c3cc(OC4CCN(c5ncccn5)CC4)ccc23)nc1C(F)(F)F (racemic) [Compound I-367] | > 8.00 |  |
| CC1CC(Oc2ccc3c(-c4ncc(C(=O)NC5(C(=O)O)C6CC7CC(C6)CC5C7)c(C(F)(F)F)n4)cn(C4CCC(F)(F)CC4)c3c2)CCN1c1ncc(F)cn1 (single isomer, unassigned) [Compound I-386] |  | pEC50 [2]: > 8.00 |

Second part, led by results:

| pEC50 [1] | Compound | other results |
| --- | --- | --- |
| > 8.00 | O=C(NC1(C(=O)O)C2CC3CC(C2)CC1C3)c1ccc(-c2cn([C@H]3CC[C@@H](O)CC3)c3cc(OC4CCN(c5ncccn5)CC4)ccc23)nc1C(F)(F)F (stereo partly shown) [Compound I-194] |  |
| > 8.00 | O=C(NC1(C(=O)O)C2CC3CC(C2)CC1C3)c1cnc(-c2cn(C3CCC(F)(F)CC3)c3cc(OC4CCN(c5ncc(F)s5)CC4)ccc23)nc1C(F)(F)F (stereo not shown) [Compound I-420] |  |
| > 8.00 | N#CC1(NC(=O)c2cnc(N3CC4(CCOCC4)c4cc(OC5CCN(c6ncccn6)CC5)ccc43)nc2C(F)(F)F)CCCCC1 [Compound I-94] |  |
| > 8.00 | O=C(NC1(C(=O)O)C2CC3CC(C2)CC1C3)c1ccc(-c2cn(C3CCC3)c3cc(OC4CCN(c5ncccn5)CC4)ccc23)nc1C(F)(F)F (stereo not shown) [Compound I-154] |  |
| > 8.00 | CCc1ccc2c(c1)C1(CCOCC1)CN2c1ncc(C(=O)NC2(C(=O)O)C3CC4CC(C3)CC2C4)c(C(F)(F)F)n1 (stereo not shown) [Compound I-133] |  |
| > 8.00 | COC(=O)N1CCC(Oc2ccc3c(-c4ncc(C(=O)NC5(C(=O)O)C6CC7CC(C6)CC5C7)c(C(F)(F)F)n4)cn(C4CCC(F)(F)CC4)c3c2)CC1 (stereo not shown) [Compound I-255] |  |
| > 8.00 | CN(C)CCc1nc(N2CC3(CCOCC3)c3cc(OC4CCN(c5ncccn5)CC4)ccc32)nc(C(F)(F)F)c1C(=O)NC1(C(=O)O)C2CC3CC(C2)CC1C3 (stereo not shown) [Compound I-168] |  |
| > 8.00 | O=C(NC1(C(=O)O)C2CC3CC(C2)CC1C3)c1cnc(N2CCc3cc(OCCC4CCOCC4)cnc32)cc1C(F)(F)F (stereo not shown) [Compound I-126] |  |
| > 8.00 | O=C(NC1(C(=O)O)C2CC3CC(C2)CC1C3)c1ccc(-c2cn(CC(=O)N3CCOCC3)c3cc(OC4CCN(c5ncccn5)CC4)ccc23)nc1C(F)(F)F (stereo not shown) [Compound I-149] |  |
| > 8.00 | O=C(NC1(C(=O)O)C2CC3CC(C2)CC1C3)c1cnc(-c2cn(C3CCC(F)(F)CC3)c3cc(OC4CCN(c5cc(F)ccn5)CC4)ccc23)nc1C(F)(F)F (stereo not shown) [Compound I-411] |  |
| > 8.00 | O=C(NC1(C(=O)O)C2CC3CC(C2)CC1C3)c1cnc(N2CC3(CCOCC3)c3cc(OCCC(F)(F)F)ccc32)nc1C(F)(F)F (stereo not shown) [Compound I-442] |  |
| > 8.00 | CC1(C)CCC(n2cc(-c3ccc(C(=O)NC4(C(=O)O)C5CC6CC(C5)CC4C6)c(C(F)(F)F)n3)c3ccc(OC4CCN(c5ncccn5)CC4)cc32)CC1 (stereo not shown) [Compound I-281] |  |
| > 8.00 | COc1cccc(CNc2ccc3c(c2)CCN3c2ncc(C(=O)NC3(C(=O)O)CCCCC3)c(C(F)(F)F)n2)c1 [Compound I-40] |  |
| > 8.00 | O=C(NC1(C(=O)O)C2CC3CC(C2)CC1C3)c1ccc(-c2cn(C3CCC(F)(F)CC3)c3cc(OC4CCN(C5COC5)CC4)ccc23)nc1C(F)(F)F (stereo not shown) [Compound I-240] |  |
| > 8.00 | CC(NC(=O)c1cnc(-c2cn(C3CCC(F)(F)CC3)c3cc(OC4CCN(c5ncccn5)CC4)ccc23)nc1C(F)(F)F)(C(=O)O)C1CCCCC1 (racemic) [Compound I-267] |  |
| > 8.00 | O=C(NC1(C(=O)O)C2CC3CC(C2)CC1C3)c1ccc(-c2cn([C@H]3CC[C@@H](OCc4ccccc4)CC3)c3cc(OC4CCN(c5ncccn5)CC4)ccc23)nc1C(F)(F)F (stereo partly shown) [Compound I-188] |  |
| > 8.00 | Cc1ccc2c(c1)C1(CCNCC1)CN2c1ncc(C(=O)NC2(C(=O)O)C3CC4CC(C3)CC2C4)c(C(F)(F)F)n1 (stereo not shown) [Compound I-134] |  |
| > 8.00 | O=C(NC1(C(=O)O)C2CC3CC(C2)CC1C3)c1ccc(-c2cn(-c3ccc(F)cc3)c3cc(OC4CCN(c5ncccn5)CC4)ccc23)nc1C(F)(F)F (stereo not shown) [Compound I-389] |  |
| > 8.00 | O=C(NC1(C(=O)O)C2CC3CC(C2)CC1C3)c1ccc(-c2cn(C(=O)OC3CCCCC3)c3cc(OC4CCN(c5ncccn5)CC4)ccc23)nc1C(F)(F)F (stereo not shown) [Compound I-150] |  |
| > 8.00 | O=C(NC1(C(=O)O)C2CC3CC(C2)CC1C3)c1cnc(N2CC3(CCOCC3)c3cc(OC4CCN(c5ncc(C(F)(F)F)cn5)CC4)ccc32)nc1C(F)(F)F (stereo not shown) [Compound I-274] |  |
| > 8.00 | O=C(NC1(C(=O)O)C2CC3CC(C2)CC1C3)c1cnc(-c2cn(C3CCOC3)c3cc(OC4CCN(c5ncc(F)cn5)CC4)ccc23)nc1C(F)(F)F (racemic) [Compound I-410] |  |
| > 8.00 | CC1CN(c2ncccn2)CCC1Oc1ccc2c(-c3ncc(C(=O)NC4(C(=O)O)C5CC6CC(C5)CC4C6)c(C(F)(F)F)n3)cn(C3CCC(F)(F)CC3)c2c1 (stereo not shown) [Compound I-273] |  |
| > 8.00 | O=C(NC1(C(=O)O)C2CC3CC(C2)CC1C3)c1cnc(-c2cn(C3CCC(F)(F)CC3)c3cc(O[C@H]4CCN(CC(F)(F)F)C4)ccc23)nc1C(F)(F)F (stereo partly shown) [Compound I-375] |  |
